How the values were obtained:
[1] = biological target: T1, Synaptic vesicular amine transporter (Rattus norvegicus, UniProt Q01827); assay: Inhibition of [3H]DA uptake at VMAT2 in rat striata vesicles homogenate after 8 mins by liquid scintillation counting
[2] = biological target: T1, Synaptic vesicular amine transporter; assay: Displacement of [3H]DTBZ from VMAT2 in rat whole brain vesicles homogenate after 30 mins by liquid scintillation counting; type: tissue-based
[3] = biological target: Synaptic vesicular amine transporter (Rattus norvegicus) (UniProt Q01827); assay: Potency index, ratio of lobelane Ki to compound Ki for VMAT2 in rat striata vesicles homogenate
Chain of Synaptic vesicular amine transporter (Rattus norvegicus) (Q01827 whole entry): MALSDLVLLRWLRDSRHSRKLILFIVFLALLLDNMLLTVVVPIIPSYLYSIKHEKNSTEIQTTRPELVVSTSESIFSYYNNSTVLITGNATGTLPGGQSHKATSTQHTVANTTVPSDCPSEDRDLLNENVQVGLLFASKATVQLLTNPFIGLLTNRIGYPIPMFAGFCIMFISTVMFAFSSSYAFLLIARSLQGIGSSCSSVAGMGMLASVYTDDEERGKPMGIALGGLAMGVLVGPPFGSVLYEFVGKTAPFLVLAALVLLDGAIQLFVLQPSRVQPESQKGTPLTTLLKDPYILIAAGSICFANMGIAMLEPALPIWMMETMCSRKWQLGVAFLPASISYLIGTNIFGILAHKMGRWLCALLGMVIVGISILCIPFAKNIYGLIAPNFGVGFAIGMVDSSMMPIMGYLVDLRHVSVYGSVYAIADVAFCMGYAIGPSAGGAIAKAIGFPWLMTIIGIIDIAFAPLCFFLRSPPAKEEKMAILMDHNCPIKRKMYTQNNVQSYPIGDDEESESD

[4] = biological target: Synaptic vesicular amine transporter (Rattus norvegicus) (UniProt Q01827); assay: Potency index, ratio of lobelane Ki to compound Ki for VMAT2 in rat whole brain vesicles homogenate

T1 sequence (Q01827 whole entry): as above

Structure (SMILES) | Ki [2] | Ratio Ki [3] | other results
c1ccc(CCC2CCN(CCc3ccccc3)CC2)cc1 | – | – | Ki [1]: 120 nM
COc1ccccc1CCN1CCC(CCc2ccccc2)CC1 | 260 nM | – | –
COc1ccc(CCC2CCN(CCc3ccc(OC)cc3)CC2)cc1 | 2500 nM | – | –
COc1ccccc1CCC1CCN(CCc2ccc(F)cc2)CC1 | – | 4 | –
COc1ccc(CCN2CCC(Cc3ccccc3)CC2)cc1 | 1900 nM | – | –
COc1cccc(CCN2CCC(CCc3ccccc3)CC2)c1 | 270 nM | – | –
COc1cccc(CCN2CCC(Cc3ccccc3)CC2)c1 | 1500 nM | – | –
COc1ccccc1CCC1CCN(CCc2ccccc2OC)CC1 | – | 4 | Ratio Ki [4]: 5
COc1ccccc1CCN1CCC(Cc2ccccc2)CC1 | 2800 nM | – | –
COc1cccc(CCN2CCC(CCc3ccccc3OC)CC2)c1 | – | 4 | Ratio Ki [4]: 5

Reference: ChEMBL document CHEMBL3808320, “1,4-Diphenalkylpiperidines: A new scaffold for the design of potent inhibitors of the vesicular monoamine transporter-2” (Bioorg Med Chem Lett, 2016)
